# PMC11960969, “Mdga2 deficiency leads to an aberrant activation of BDNF/TrkB signaling that underlies autism-relevant synaptic and behavioral changes in mice” (PLOS Biology, 2025)
# How the values were obtained:
# TrkB signaling pathway = experiment: Immunoblotting of TrkB signaling in hippocampal neurons treated with NLGN1 siRNA; type: cell-based, mouse; settings: NLGN1 knockdown in MDGA2-deficient hippocampal neurons, n = 4
# Description: NLGN1-targeting siRNA and scrambled control siRNA were synthesized by GenePharma (Shanghai, China). The sequences were as follows: NLGN1 siRNA sense: 5′-[…]-[…]-3′, NLGN1 siRNA antisense: 5′-[…]-3′. Scrambled control siRNA sense: 5′-[…]-3′, Scrambled control siRNA antisense: 5′-[…]-3′
# Plasmids were transfected into HEK293T, SH-SY5Y, and HeLa cells using Turbofect transfection reagent (ThermoFisher), following the manufacturer’s instructions. Primary neurons were transfected with plasmids using Lipofectamine LTX (ThermoFisher, Cat# 15338100) or EntransterTM-H4000 transfection reagent (Engreen Bio-system, Cat# 4000-6), and with siRNAs using Lipofectamine RNAiMAX (ThermoFisher, Cat# 13778100), following manufacturers’ protocols. The transfection efficiency of both Lipofectamine LTX and EntransterTM-H4000 exceeded 50%. […]
# Supplementary file pbio.3003047.s003.tif: S3 Fig MDGA2 competes with brain-derived neurotrophic factor (BDNF) for tyrosine kinase B (TrkB) binding. […] The pTyr levels were quantified by densitometry, normalized to total TrkB levels, and then compared to those of WT littermates. n = 4 per group. […] Immunoprecipitated BDNF levels in Het samples were quantified by densitometry, normalized to input levels, and compared to WT controls (set to one arbitrary units). n = 4 per group. […]
# TrkB = experiment: Biotin pull-down of TrkB after intrahippocampal injection of biotin-peptides; type: in vivo; settings: 1 μg biotin-conjugated peptide bilaterally into mouse hippocampus, 24 h
# ASD animal models = settings: VRK3-deficient mice and D2-deficient mice with early-life stress; cited from earlier work
molecule,measurement,setting,value
"NLGN1 siRNA: NLGN1-targeting siRNA, sense 5′-CCUGUGUGGU-UCACUAAUATT-3′ (sense CCUGUGUGGUUCACUAAUATT; antisense UAUUAGUGAACCACACAGGTT; chemistry not given here)",effect on TrkB signaling pathway,TrkB signaling pathway,treated with either vehicle or NLGN1 siRNA
"NADRSGSKEGFYMYIETSRPRLEGE [MDGA2-P1, peptide of MDGA2 MAM domain, aa 787–811, biotin-labeled]",binding to TrkB in vivo (biotin pull-down),TrkB,"not P1, bound to TrkB in vivo"
"O=c1cc(-c2ccccc2)oc2c(O)c(O)ccc12 [7.8-dihydroxyflavone, reference compound]",social deficits and repetitive self-grooming behavior,ASD animal models,rescued both social deficits and repetitive self-grooming behavior
